# Reference: patent US6737383B1, “Herbicidal oxadiazolidines” (priority 1999, dated 2004)
# Columns and labels:
# [1] = test system: bedstraw; test: Test B pre/postemergence bedstraw; format: in vivo, Galium aparine
# Summary of the method: (§1)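 Response is a visual 0-to-10 score relative to untreated plants, where 0 means no effect and 10 means complete control, taken twelve to sixteen days after application. Treatments went onto soil at planting and onto foliage of 1- to 4-leaf plants, using a surfactant-containing non-phytotoxic solvent.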
# [2] = test system: blackgrass; test: Test B pre/postemergence blackgrass; format: in vivo, Alopecurus myosuroides
# Summary of the method: as §1
# [3] = test system: giant foxtail; test: Test B pre/postemergence giant foxtail; format: in vivo, Setaria faberii
# Summary of the method: as §1
# [4] = test system: morningglory; test: Test B pre/postemergence morningglory; format: in vivo, Ipomoea hederacea
# Summary of the method: as §1
# [5] = test system: pigweed; test: Test B pre/postemergence pigweed; format: in vivo, Amaranthus retroflexus
# Summary of the method: as §1
# [6] = test system: rape; test: Test B pre/postemergence rape; format: in vivo, Brassica napus
# Summary of the method: as §1
# [7] = test system: soybean; test: Test B pre/postemergence soybean; format: in vivo, Glycine max
# Summary of the method: as §1
# [8] = test system: sugar beet; test: Test B pre/postemergence sugar beet; format: in vivo, Beta vulgaris
# Summary of the method: as §1
# [9] = test system: velvetleaf; test: Test B pre/postemergence velvetleaf; format: in vivo, Abutilon theophrasti
# Summary of the method: as §1
# [10] = test system: wheat; test: Test B pre/postemergence wheat; format: in vivo, Triticum aestivum
# Summary of the method: as §1
# [11] = test system: wild oat; test: Test B pre/postemergence wild oat; format: in vivo, Avena fatua
# Summary of the method: as §1
# [12] = test system: purple nutsedge; test: Test B pre/postemergence purple nutsedge; format: in vivo, Cyperus rotundus
# Summary of the method: as §1
# [13] = test system: rice; test: Test B flood test rice; format: in vivo, Oryza sativa
# Summary of the method: (§2)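 Each value is a visual injury score relative to controls, with 10 meaning complete control and 0 no effect. Evaluation took place twelve to sixteen days after the 2-leaf-stage plants were treated and kept in the greenhouse.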
# [14] = test system: smallflower flatsedge; test: Test B flood test smallflower flatsedge; format: in vivo, Cyperus difformis
# Summary of the method: as §2
# [15] = test system: duck salad; test: Test B flood test duck salad; format: in vivo, Heteranthera limosa
# Summary of the method: as §2
# [16] = test system: bamyardgrass; test: Test B flood test barnyardgrass; format: in vivo, Echinochloa crus-galli
# Summary of the method: as §2
# [17] = Postemergence, Rate 62 g/ha, scale 0 to 10, 0 is no effect, 10 is complete control
# [18] = Postemergence, Rate 250 g/ha, scale 0 to 10, 0 no effect, 10 complete control
# [19] = Preemergence, Rate 31 g/ha, visual rating, scale 0 to 10 (0 no effect, 10 complete control)
# [20] = Preemergence, Rate 62 g/ha, scale 0 to 10, 0 is no effect, 10 is complete control
# [21] = Preemergence, Rate 125 g/ha, scale 0 to 10 (0 no effect, 10 complete control)
# [22] = Preemergence, Rate 250 g/ha, scale of 0 to 10 where 0 is no effect and 10 is complete control
# [23] = Rate 31 g/ha, Postemergence, scale 0 to 10
# [24] = Rate 125 g/ha, Postemergence, scale 0 to 10, 0 no effect, 10 complete control
# [25] = Rate 125 g/ha, Postemergence section (flood test species), scale 0 to 10, 0 no effect, 10 complete control
# [26] = Rate 500 g/ha, Postemergence section of Table B, 0 to 10 scale (0 no effect, 10 complete control)
# [27] = flood test, listed under Postemergence, Rate 250 g/ha, scale 0 to 10, 0 no effect, 10 complete control
compound,measurement,setting,value
COc1ccccc1-n1c(=O)on(C(=O)N(c2ccc(F)cc2F)C(C)C)c1=O [Compound 31],Bedstraw plant response rating,[1]; [17],0
same,Bedstraw plant response rating,[1]; [18],0
same,Bedstraw plant response rating,[1]; [19],0
same,"Plant response rating, Bedstraw",[1]; [20],0
same,"Plant response rating, Bedstraw",[1]; [21],0
same,"Plant response rating, Bedstraw",[1]; [22],0
same,Bedstraw plant response rating,[1]; [23],0
same,Bedstraw plant response rating,[1]; [24],0
same,Blackgrass plant response rating,[2]; [17],0
same,Blackgrass plant response rating,[2]; [18],9
same,Blackgrass plant response rating,[2]; [19],0
same,"Plant response rating, Blackgrass",[2]; [20],0
same,"Plant response rating, Blackgrass",[2]; [21],2
same,"Plant response rating, Blackgrass",[2]; [22],2
same,Blackgrass plant response rating,[2]; [23],0
same,Blackgrass plant response rating,[2]; [24],4
same,Giant foxtail plant response rating,[3]; [17],0
same,Giant foxtail plant response rating,[3]; [18],4
same,Giant foxtail plant response rating,[3]; [19],1
same,"Plant response rating, Giant foxtail",[3]; [20],6
same,"Plant response rating, Giant foxtail",[3]; [21],8
same,"Plant response rating, Giant foxtail",[3]; [22],8
same,Giant foxtail plant response rating,[3]; [23],0
same,Giant foxtail plant response rating,[3]; [24],0
same,Morningglory plant response rating,[4]; [17],0
same,Morningglory plant response rating,[4]; [18],3
same,Morningglory plant response rating,[4]; [19],0
same,"Plant response rating, Morningglory",[4]; [20],0
same,"Plant response rating, Morningglory",[4]; [21],0
same,"Plant response rating, Morningglory",[4]; [22],0
same,Morningglory plant response rating,[4]; [23],0
same,Morningglory plant response rating,[4]; [24],1
same,Redroot pigweed plant response rating,[5]; [17],0
same,Redroot pigweed plant response rating,[5]; [18],0
same,Redroot pigweed plant response rating,[5]; [19],0
same,"Plant response rating, Redroot pigweed",[5]; [20],0
same,"Plant response rating, Redroot pigweed",[5]; [21],0
same,"Plant response rating, Redroot pigweed",[5]; [22],3
same,Redroot pigweed plant response rating,[5]; [23],0
same,Redroot pigweed plant response rating,[5]; [24],0
same,Rape plant response rating,[6]; [17],0
same,Rape plant response rating,[6]; [18],0
same,Rape plant response rating,[6]; [19],0
same,"Plant response rating, Rape",[6]; [20],0
same,"Plant response rating, Rape",[6]; [21],0
same,"Plant response rating, Rape",[6]; [22],4
same,Rape plant response rating,[6]; [23],0
same,Rape plant response rating,[6]; [24],0
same,Soybean plant response rating,[7]; [17],1
same,Soybean plant response rating,[7]; [18],1
same,Soybean plant response rating,[7]; [19],0
same,"Plant response rating, Soybean",[7]; [20],0
same,"Plant response rating, Soybean",[7]; [21],0
same,"Plant response rating, Soybean",[7]; [22],0
same,Soybean plant response rating,[7]; [24],1
same,Sugarbeets plant response rating,[8]; [17],0
same,Sugarbeets plant response rating,[8]; [18],0
same,Sugarbeets plant response rating,[8]; [19],0
same,"Plant response rating, Sugarbeets",[8]; [20],0
same,"Plant response rating, Sugarbeets",[8]; [21],0
same,"Plant response rating, Sugarbeets",[8]; [22],0
same,Sugarbeets plant response rating,[8]; [24],0
same,Velvetleaf plant response rating,[9]; [17],0
same,Velvetleaf plant response rating,[9]; [18],0
same,Velvetleaf plant response rating,[9]; [19],0
same,"Plant response rating, Velvetleaf",[9]; [20],0
same,"Plant response rating, Velvetleaf",[9]; [21],0
same,"Plant response rating, Velvetleaf",[9]; [22],0
same,Velvetleaf plant response rating,[9]; [24],0
same,Wheat plant response rating,[10]; [17],0
same,Wheat plant response rating,[10]; [18],0
same,Wheat plant response rating,[10]; [19],0
same,"Plant response rating, Wheat",[10]; [20],0
same,"Plant response rating, Wheat",[10]; [21],0
same,"Plant response rating, Wheat",[10]; [22],0
same,Wheat plant response rating,[10]; [24],0
same,Wild oats plant response rating,[11]; [17],0
same,Wild oats plant response rating,[11]; [18],0
same,Wild oats plant response rating,[11]; [19],0
same,"Plant response rating, Wild oats",[11]; [21],2
same,"Plant response rating, Wild oats",[11]; [22],4
same,Wild oats plant response rating,[11]; [24],0
same,Nutsedge plant response rating,[12]; [17],0
same,Nutsedge plant response rating,[12]; [18],0
same,Nutsedge plant response rating,[12]; [19],0
same,"Plant response rating, Nutsedge",[12]; [20],0
same,"Plant response rating, Nutsedge",[12]; [21],0
same,"Plant response rating, Nutsedge",[12]; [22],0
same,Nutsedge plant response rating,[12]; [23],0
same,Nutsedge plant response rating,[12]; [24],0
same,Rice plant response rating,[13]; [17],0
same,Rice plant response rating,[13]; [25],0
same,Rice plant response rating,[13]; [26],0
same,Rice plant response rating,[13]; [27],0
same,S. Flatsedge plant response rating,[14]; [17],0
same,S. Flatsedge plant response rating,[14]; [25],0
same,S. Flatsedge plant response rating,[14]; [27],0
same,Ducksalad plant response rating,[15]; [17],0
same,Ducksalad plant response rating,[15]; [25],0
same,Ducksalad plant response rating,[15]; [26],0
same,Ducksalad plant response rating,[15]; [27],0
same,Barnyardgrass plant response rating,[16]; [17],0
same,Barnyardgrass plant response rating,[16]; [25],0
same,Barnyardgrass plant response rating,[16]; [26],0
same,Barnyardgrass plant response rating,[16]; [27],0
